Test results published in PMC6522510 (Nature Communications, 2019).
Where a name gives a salt, the structure may show the parent alone. Read-outs that look alike come from different tables or passages of the source.

Legend:
Parameters in all cases: species or system AML cell lines (8); Primary HTS, single concentration about 10 uM, Cell Titer Glo viability; log10 luminescence, per cent inhibition relative to cycloheximide control
Details in all cases: 72 h, relative to cycloheximide control, log10 luminescence, inhibitor
CMK = system: CMK
MOLM-13 = system: MOLM-13
U937 = system: U937
CHRF288-11 = system: CHRF288-11
CMS = system: CMS
ML-2 = system: ML-2
MV4-11 = system: MV4-11
M07e = system: M07e

| SMILES | CMK %inh (CMK; CMK %inh, 10 µM) [%] | MOLM-13 %inh (MOLM-13; MOLM-13 %inh, 10 µM) [%] | U937 %inh (U937; U937 %inh, 10 µM) [%] | CHRF288-11 %inh (CHRF288-11; CHRF288-11 %inh, 10 µM) [%] | CMS %inh (CMS; CMS %inh, 10 µM) [%] | ML-2 %inh (ML-2; ML-2 %inh, 10 µM) [%] | MV4-11 %inh (MV4-11; MV4-11 %inh, 10 µM) [%] | M07e %inh (M07e; M07e %inh, 10 µM) [%] | CMK %inh (CMK) [%] | MOLM-13 %inh (MOLM-13) [%] | U937 %inh (U937) [%] | CHRF288-11 %inh (CHRF288-11) [%] | CMS %inh (CMS) [%] | ML-2 %inh (ML-2) [%] | MV4-11 %inh (MV4-11) [%] | M07e %inh (M07e) [%] |
| --- | --- | --- | --- | --- | --- | --- | --- | --- | --- | --- | --- | --- | --- | --- | --- | --- |
| CO[C@H]1/C=C/O[C@@]2(C)Oc3c(C)c(O)c4c(O)c(c(/C=N/N5CCN(C6CCCC6)CC5)c(O)c4c3C2=O)NC(=O)/C(C)=C\C=C\[C@H](C)[C@H](O)[C@@H](C)[C@@H](O)[C@@H](C)[C@H](OC(C)=O)[C@@H]1C [SJ000556738-1, RIFAPENTINE] | -0.8493 | 5.251 | 33.42 | -0.1419 | 9.958 | 6.792 | 4.97 | 1.814 | – | – | – | – | – | – | – | – |
| CO[C@H]1/C=C/O[C@@]2(C)Oc3c(C)c(O)c4c(O)c(c(/C=N/N5CCN(C6CCCC6)CC5)c(O)c4c3C2=O)NC(=O)/C(C)=C\C=C\[C@H](C)[C@H](O)[C@@H](C)[C@@H](O)[C@@H](C)[C@H](OC(C)=O)[C@@H]1C [SJ000556738-2, RIFAPENTINE] | -1.103 | 7.481 | 26.01 | -2.807 | 24.93 | 7.469 | 5.68 | 2.598 | – | – | – | – | – | – | – | – |
| C[C@@H]1C[C@H]2[C@@H]3C[C@H](F)C4=CC(=O)C=C[C@]4(C)[C@@]3(F)[C@@H](O)C[C@]2(C)[C@@]1(OC(=O)c1ccco1)C(=O)SCF [SJ000556747-1, FLUTICASONE FUROATE] | – | – | – | – | – | – | – | – | 4.028 | 2.731 | 15.51 | 5.244 | 42.17 | 5.949 | 10.07 | 0.03036 |
| Cc1c(F)c(N2CCNC(C)C2)cc2c1c(=O)c(C(=O)O)cn2C1CC1 (stereo not drawn) [SJ000556748-1, GREPAFLOXACIN] | – | – | – | – | – | – | – | – | -2.149 | 27.08 | 0.03292 | 7.335 | -1.062 | -2.485 | -0.8156 | -0.4769 |
| Nc1nc(=O)n([C@@H]2CS[C@H](CO)O2)cc1F [SJ000556750-1, EMTRICITABINE] | – | – | – | – | – | – | – | – | 2.775 | 20.59 | -2.394 | 2.371 | -3.992 | 2.01 | -2.268 | -0.1929 |
| CCOCCn1c(N2CCCN(C)CC2)nc2ccccc21 [SJ000556751-1, EMEDASTINE DIFUMARATE] | – | – | – | – | – | – | – | – | -0.9686 | 8.131 | 0.3803 | -0.4103 | -0.1534 | 1.809 | -1.235 | 0.9271 |
| CCCCc1ncc(/C=C(\Cc2cccs2)C(=O)O)n1Cc1ccc(C(=O)O)cc1 [SJ000556755-1, EPROSARTAN MESYLATE] | – | – | – | – | – | – | – | – | 1.513 | -0.5594 | 2.452 | 1.693 | 2.254 | 1.173 | -5.649 | 2.786 |
| CO/N=C1\CN(c2nc3c(cc2F)c(=O)c(C(=O)O)cn3C2CC2)CC1CN (stereo not drawn) [SJ000556758-1, GEMIFLOXACIN MESILATE] | – | – | – | – | – | – | – | – | 10.74 | 8.66 | 9.491 | 4.811 | 4.675 | 0.2536 | 8.469 | 5.532 |
| CCCCCCCN(CC)CCCC(O)c1ccc(NS(C)(=O)=O)cc1 (stereo not drawn) [SJ000556760-1, IBUTILIDE FUMARATE] | – | – | – | – | – | – | – | – | 2.977 | 2.626 | 0.6889 | 6.024 | 0.3403 | -1.379 | 3.1 | 2.78 |
